Test results: the supplement of paper PMC10307832

Key:
Assay in all cases: relative viability (nuclei count vs DMSO), 5 days (fraction); higher = more cells survive
[1] = tested on: NCI-H2009
Procedure, shortened: (§1)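 Relative viability was taken as the ratio of nuclei in treated wells to nuclei in vehicle wells. Lung cancer cell lines in 1536-well plates received compounds by pin tool one day after seeding, either one drug alone or a fixed anchor-drug dose plus five library-drug doses (not always all listed) in √10 steps. Nuclei were counted on 4× images after 5 days of treatment, and values are medians of duplicate plates.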

[2] = tested on: SK-LU-1
Procedure, shortened: as §1

[3] = tested on: NCI-H2228
Procedure, shortened: as §1

[4] = tested on: HOP-62
Procedure, shortened: as §1

[5] = tested on: A-427
Procedure, shortened: as §1

[6] = tested on: NCI-H1975
Procedure, shortened: as §1

[7] = tested on: NCI-H1792
Procedure, shortened: as §1

[8] = tested on: EMC-BAC-2
Procedure, shortened: as §1

[9] = tested on: CAL-12T
Procedure, shortened: as §1

[10] = tested on: HARA
Procedure, shortened: as §1

[11] = tested on: HCC-827
Procedure, shortened: as §1

[12] = tested on: NCI-H460
Procedure, shortened: as §1

[13] = tested on: NCI-H23
Procedure, shortened: as §1

[14] = tested on: SW 1573
Procedure, shortened: as §1

[15] = tested on: NCI-H1355
Procedure, shortened: as §1

[16] = tested on: NCI-H1437
Procedure, shortened: as §1

[17] = tested on: NCI-H1915
Procedure, shortened: as §1

[18] = tested on: NCI-H727
Procedure, shortened: as §1

[19] = tested on: HCC-366
Procedure, shortened: as §1

[20] = tested on: NCI-H1755
Procedure, shortened: as §1

[21] = tested on: COR-L 105
Procedure, shortened: as §1

[22] = tested on: LCLC-103H
Procedure, shortened: as §1

## Oc1nc(-c2ccc(C(F)(F)F)cc2)nc2c1CSCC2 [XAV939] + CC(C)C[C@H](NC(=O)[C@H](Cc1ccccc1)NC(=O)c1cnccn1)B(O)O [Bortezomib] (partner 0.002 µM)
[1]; first compound 0.08 µM
  relative viability: 1.17
[1]; first compound 0.253 µM
  relative viability: 0.901
[1]; first compound 0.8 µM
  relative viability: 0.936
[1]; first compound 2.53 µM
  relative viability: 0.915
[2]; first compound 0.08 µM
  relative viability: 1.16
[2]; first compound 0.253 µM
  relative viability: 1.13
[2]; first compound 0.8 µM
  relative viability: 1.05
[2]; first compound 2.53 µM
  relative viability: 1.39
[3]; first compound 0.08 µM
  relative viability: 1.31
[3]; first compound 0.253 µM
  relative viability: 0.711
[3]; first compound 0.8 µM
  relative viability: 1.01
[3]; first compound 2.53 µM
  relative viability: 0.861
[4]; first compound 0.08 µM
  relative viability: 1.19
[4]; first compound 0.253 µM
  relative viability: 0.73
[4]; first compound 0.8 µM
  relative viability: 0.988
[4]; first compound 2.53 µM
  relative viability: 0.352
[5]; first compound 0.08 µM
  relative viability: 1.06
[5]; first compound 0.253 µM
  relative viability: 0.977
[5]; first compound 0.8 µM
  relative viability: 0.883
[5]; first compound 2.53 µM
  relative viability: 0.769
[6]; first compound 0.08 µM
  relative viability: 0.305
[6]; first compound 0.253 µM
  relative viability: 0.352
[6]; first compound 0.8 µM
  relative viability: 0.346
[6]; first compound 2.53 µM
  relative viability: 0.349
[7]; first compound 0.08 µM
  relative viability: 0.945
[7]; first compound 0.253 µM
  relative viability: 0.943
[7]; first compound 0.8 µM
  relative viability: 0.973
[7]; first compound 2.53 µM
  relative viability: 0.869
[8]; first compound 0.08 µM
  relative viability: 1.11
[8]; first compound 0.253 µM
  relative viability: 0.946
[8]; first compound 0.8 µM
  relative viability: 0.997
[8]; first compound 2.53 µM
  relative viability: 0.636
[9]; first compound 0.08 µM
  relative viability: 0.981
[9]; first compound 0.253 µM
  relative viability: 0.856
[9]; first compound 0.8 µM
  relative viability: 0.89
[9]; first compound 2.53 µM
  relative viability: 0.977
[10]; first compound 0.08 µM
  relative viability: 1.35
[10]; first compound 0.253 µM
  relative viability: 1
[10]; first compound 0.8 µM
  relative viability: 1.12
[10]; first compound 2.53 µM
  relative viability: 1
[11]; first compound 0.08 µM
  relative viability: 1.03
[11]; first compound 0.253 µM
  relative viability: 0.868
[11]; first compound 0.8 µM
  relative viability: 1.07
[11]; first compound 2.53 µM
  relative viability: 1.09
[12]; first compound 0.08 µM
  relative viability: 1.45
[12]; first compound 0.253 µM
  relative viability: 1.07
[12]; first compound 0.8 µM
  relative viability: 1.05
[12]; first compound 2.53 µM
  relative viability: 1.08
[13]; first compound 0.08 µM
  relative viability: 0.992
[13]; first compound 0.253 µM
  relative viability: 1.12
[13]; first compound 0.8 µM
  relative viability: 0.989
[13]; first compound 2.53 µM
  relative viability: 0.886
[14]; first compound 0.08 µM
  relative viability: 0.994
[14]; first compound 0.253 µM
  relative viability: 1.01
[14]; first compound 0.8 µM
  relative viability: 1.1
[14]; first compound 2.53 µM
  relative viability: 0.676
[15]; first compound 0.08 µM
  relative viability: 1.17
[15]; first compound 0.253 µM
  relative viability: 1.06
[15]; first compound 0.8 µM
  relative viability: 1.21
[15]; first compound 2.53 µM
  relative viability: 0.81
[16]; first compound 0.08 µM
  relative viability: 0.641
[16]; first compound 0.253 µM
  relative viability: 0.548
[16]; first compound 0.8 µM
  relative viability: 0.512
[16]; first compound 2.53 µM
  relative viability: 0.376
[17]; first compound 0.08 µM
  relative viability: 1.06
[17]; first compound 0.253 µM
  relative viability: 0.974
[17]; first compound 0.8 µM
  relative viability: 0.983
[17]; first compound 2.53 µM
  relative viability: 1.14
[18]; first compound 0.08 µM
  relative viability: 1.05
[18]; first compound 0.253 µM
  relative viability: 0.589
[18]; first compound 0.8 µM
  relative viability: 0.803
[18]; first compound 2.53 µM
  relative viability: 0.957
[19]; first compound 0.08 µM
  relative viability: 1.12
[19]; first compound 0.253 µM
  relative viability: 0.991
[19]; first compound 0.8 µM
  relative viability: 1.01
[19]; first compound 2.53 µM
  relative viability: 1.05
[20]; first compound 0.08 µM
  relative viability: 0.91
[20]; first compound 0.253 µM
  relative viability: 0.884
[20]; first compound 0.8 µM
  relative viability: 0.86
[20]; first compound 2.53 µM
  relative viability: 0.868
[21]; first compound 0.08 µM
  relative viability: 0.853
[21]; first compound 0.253 µM
  relative viability: 0.755
[21]; first compound 0.8 µM
  relative viability: 0.618
[21]; first compound 2.53 µM
  relative viability: 0.567
[22]; first compound 0.08 µM
  relative viability: 0.936
[22]; first compound 0.253 µM
  relative viability: 1.11
[22]; first compound 0.8 µM
  relative viability: 0.861
[22]; first compound 2.53 µM
  relative viability: 1.01
